Source: PMC10367051, “Comprehensive Mechanistic View of the Hydrolysis of Oxadiazole-Based Inhibitors by Histone Deacetylase 6 (HDAC6)” (ACS Chemical Biology, 2023)

Experiments:
Assay type in all cases: biochemical
Details in all cases: purified human protein; Boc-[Lys-TFA]-AMC substrate 10 μM; 15 min preincubation
HDAC7 = molecular target: T1, HDAC7 (Homo sapiens, UniProt Q8WUI4); assay: Fluorometric HDAC inhibition assay, HDAC7
T1 construct: TwinStrep-FLAG-HALO (N, cleaved yes); made in house; host or cells: HEK293/T17
T1 sequence (Q8WUI4 1-952): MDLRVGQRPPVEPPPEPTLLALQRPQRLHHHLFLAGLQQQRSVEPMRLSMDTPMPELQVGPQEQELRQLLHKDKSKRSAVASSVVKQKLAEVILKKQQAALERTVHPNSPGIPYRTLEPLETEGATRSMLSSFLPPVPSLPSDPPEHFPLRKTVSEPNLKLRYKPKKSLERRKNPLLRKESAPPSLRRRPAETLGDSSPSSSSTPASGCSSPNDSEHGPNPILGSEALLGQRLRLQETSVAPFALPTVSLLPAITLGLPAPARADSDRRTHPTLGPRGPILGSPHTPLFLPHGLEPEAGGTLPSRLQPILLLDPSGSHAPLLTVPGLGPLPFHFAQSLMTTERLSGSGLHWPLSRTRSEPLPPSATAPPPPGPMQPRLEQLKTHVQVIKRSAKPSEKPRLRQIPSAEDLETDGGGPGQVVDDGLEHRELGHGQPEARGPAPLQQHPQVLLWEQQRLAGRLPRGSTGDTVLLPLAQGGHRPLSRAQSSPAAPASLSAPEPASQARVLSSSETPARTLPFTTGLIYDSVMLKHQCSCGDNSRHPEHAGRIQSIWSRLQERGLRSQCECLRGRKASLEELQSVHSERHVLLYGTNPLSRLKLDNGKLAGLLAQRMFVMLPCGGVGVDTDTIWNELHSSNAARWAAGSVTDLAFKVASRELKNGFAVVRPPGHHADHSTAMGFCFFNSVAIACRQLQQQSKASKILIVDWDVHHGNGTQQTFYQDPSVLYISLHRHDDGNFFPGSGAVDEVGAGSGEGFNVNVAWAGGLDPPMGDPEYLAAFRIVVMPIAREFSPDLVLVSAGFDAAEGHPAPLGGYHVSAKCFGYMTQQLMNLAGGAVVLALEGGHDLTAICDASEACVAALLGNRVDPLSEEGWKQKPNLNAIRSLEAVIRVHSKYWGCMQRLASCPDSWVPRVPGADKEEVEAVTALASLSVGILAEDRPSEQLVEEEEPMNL
Procedure: (§1) Large-scale expression of recombinant human HDACs was carried out as described previously.[32],[37] Briefly, HEK293/T17 cells were transiently transfected with expression pMM222 plasmids comprising N-terminally tagged (TwinStrep-FLAG-HALO tag; Figure S1) HDAC genes using linear poly(ethyleneimine) (PEI, Polysciences Inc.). Cells were harvested three days post-transfection, and cell pellets were resuspended in the lysis buffer (100 mM Tris-HCl, 10 mM NaCl, 5 mM KCl, 2 mM MgCl2, and 10% glycerol at pH 8.0). Cells were disrupted by sonication, cell lysates were cleared by centrifugation, and soluble fusion proteins were first purified by Streptactin affinity chromatography (IBA). For all HDACs but HDACs 1, 10, and 11, the N-terminal tag was cleaved off overnight by the addition of TEV protease (10:1 HDAC/TEV ratio). Size-exclusion chromatography on a Superose 6 column (GE Healthcare Bio-Sciences; running buffer 30 mM HEPES, 140 mM NaCl, 10 mM KCl, 3% glycerol, and 0.25 mM TCEP) was used as the final purification step for all HDAC constructs.
(§2) Optimized fluorometric assays were used to determine inhibition constants of studied compounds against individual HDAC isoforms as described previously.[32] Briefly, reactions were performed in the activity buffer comprising 50 mM HEPES, 140 mM NaCl, and 10 mM KCl at pH 7.4 supplemented with 1 mg mL^–1 bovine serum albumin (BSA), 1 mM tris(2-carboxyethyl)phosphine (TCEP), 10 μM substrates, and optimized concentrations of HDACs. The Ac-Gly-Ala-[Lys-Ac]-7-amino-methylcoumarylamide (AMC) substrate was used to profile HDACs 1, 2, 3, and 6; Boc-[Lys-TFA]-7-amino-methylcoumarylamide was used for HDACs 4, 5, 7, 8, and 9 (both substrates: Bachem); fluorescein-labeled N8-acetylspermidine was used for HDAC10;[32] and an internally quenched TNFα-derived peptide derivative was used for HDAC11.[39] Deacetylation reactions were monitored either by high-performance liquid chromatography (HPLC) (HDAC10) or by quantification of released AMC (λex/λem = 365/440 nm) using a CLARIOstar plate reader (BMG Labtech GmbH).

HDAC5 = molecular target: T2, HDAC5 (Homo sapiens, UniProt Q9UQL6); assay: Fluorometric HDAC inhibition assay, HDAC5
T2 construct: TwinStrep-FLAG-HALO (N, cleaved yes); made in house; host or cells: HEK293/T17
Procedure: as §1, §2

HDAC9 = molecular target: T3, HDAC9 (Homo sapiens, UniProt Q9UKV0); assay: Fluorometric HDAC inhibition assay, HDAC9
T3 construct: TwinStrep-FLAG-HALO (N, cleaved yes); made in house; host or cells: HEK293/T17
Procedure: as §1, §2

T3 sequence (Q9UKV0 whole entry): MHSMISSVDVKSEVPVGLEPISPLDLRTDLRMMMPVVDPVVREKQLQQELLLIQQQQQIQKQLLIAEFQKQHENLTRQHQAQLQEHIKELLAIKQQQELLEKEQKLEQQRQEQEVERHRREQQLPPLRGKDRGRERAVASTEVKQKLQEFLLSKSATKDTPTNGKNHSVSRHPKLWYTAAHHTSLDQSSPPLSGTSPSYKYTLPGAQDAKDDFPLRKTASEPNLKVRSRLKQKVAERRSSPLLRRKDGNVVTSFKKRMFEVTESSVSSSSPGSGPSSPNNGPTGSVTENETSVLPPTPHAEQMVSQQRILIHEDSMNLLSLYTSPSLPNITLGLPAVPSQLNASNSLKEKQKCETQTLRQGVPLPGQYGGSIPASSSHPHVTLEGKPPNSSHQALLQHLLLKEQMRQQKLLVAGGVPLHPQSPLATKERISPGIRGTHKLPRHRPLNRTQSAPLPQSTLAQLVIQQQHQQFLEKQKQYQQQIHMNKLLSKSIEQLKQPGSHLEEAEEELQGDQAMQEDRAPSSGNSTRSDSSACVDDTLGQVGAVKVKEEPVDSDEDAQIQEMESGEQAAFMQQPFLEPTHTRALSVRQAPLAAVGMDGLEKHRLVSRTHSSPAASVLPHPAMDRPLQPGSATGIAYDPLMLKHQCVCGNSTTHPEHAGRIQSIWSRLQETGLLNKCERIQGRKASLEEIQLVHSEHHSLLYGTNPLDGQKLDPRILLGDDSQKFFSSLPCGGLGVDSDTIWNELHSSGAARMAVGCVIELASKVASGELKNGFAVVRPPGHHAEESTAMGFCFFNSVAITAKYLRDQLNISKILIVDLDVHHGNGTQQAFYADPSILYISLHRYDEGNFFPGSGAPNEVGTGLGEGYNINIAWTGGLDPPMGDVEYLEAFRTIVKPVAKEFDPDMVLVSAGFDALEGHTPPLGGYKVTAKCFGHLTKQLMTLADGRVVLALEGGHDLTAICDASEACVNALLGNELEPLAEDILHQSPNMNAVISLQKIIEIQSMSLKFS
T2 sequence (Q9UQL6 whole entry): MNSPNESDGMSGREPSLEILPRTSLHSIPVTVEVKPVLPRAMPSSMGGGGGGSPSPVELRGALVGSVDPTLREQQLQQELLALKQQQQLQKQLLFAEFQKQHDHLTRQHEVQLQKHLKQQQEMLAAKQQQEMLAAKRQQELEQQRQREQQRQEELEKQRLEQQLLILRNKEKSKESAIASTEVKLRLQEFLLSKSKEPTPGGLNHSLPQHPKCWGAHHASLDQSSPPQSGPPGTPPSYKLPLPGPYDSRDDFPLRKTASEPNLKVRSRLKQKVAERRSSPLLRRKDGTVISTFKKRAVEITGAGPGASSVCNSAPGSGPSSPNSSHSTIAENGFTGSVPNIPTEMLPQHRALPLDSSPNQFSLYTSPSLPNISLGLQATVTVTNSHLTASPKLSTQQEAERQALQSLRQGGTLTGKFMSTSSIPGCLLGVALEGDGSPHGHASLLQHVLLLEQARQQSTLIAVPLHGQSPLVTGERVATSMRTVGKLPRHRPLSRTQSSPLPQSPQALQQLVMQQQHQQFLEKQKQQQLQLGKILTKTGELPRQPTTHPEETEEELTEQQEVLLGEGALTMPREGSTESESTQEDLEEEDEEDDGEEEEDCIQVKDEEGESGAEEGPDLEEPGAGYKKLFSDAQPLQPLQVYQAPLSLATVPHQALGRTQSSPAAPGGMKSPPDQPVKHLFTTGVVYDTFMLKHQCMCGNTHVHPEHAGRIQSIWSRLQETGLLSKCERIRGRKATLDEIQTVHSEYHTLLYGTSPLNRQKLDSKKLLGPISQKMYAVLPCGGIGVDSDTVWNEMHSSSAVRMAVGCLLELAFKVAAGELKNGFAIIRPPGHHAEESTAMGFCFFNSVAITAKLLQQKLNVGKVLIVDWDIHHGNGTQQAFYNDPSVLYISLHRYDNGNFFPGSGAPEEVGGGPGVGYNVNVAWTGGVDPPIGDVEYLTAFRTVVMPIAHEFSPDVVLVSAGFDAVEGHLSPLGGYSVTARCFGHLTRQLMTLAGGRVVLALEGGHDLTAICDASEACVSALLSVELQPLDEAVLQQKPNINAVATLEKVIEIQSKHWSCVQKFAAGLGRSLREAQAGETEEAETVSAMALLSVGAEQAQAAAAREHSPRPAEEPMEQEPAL

| IC50 (HDAC7) [µM] | IC50 (HDAC5) [µM] | IC50 (HDAC9) [µM] | Structure (SMILES) |
| --- | --- | --- | --- |
| > 20 | > 20 | > 20 | CS(=O)(=O)N(Cc1ccc(C(=O)NN)cn1)c1cccc(Cl)c1 [compound 4] |
| > 20 | > 20 | > 20 | CS(=O)(=O)N(Cc1ccc(-c2nnc(C(F)(F)F)o2)cn1)c1cccc(Cl)c1 [compound 7] |

| Structure (SMILES) | IC50 (HDAC7) [µM] | IC50 (HDAC5) [µM] | IC50 (HDAC9) [µM] |
| --- | --- | --- | --- |
| CS(=O)(=O)N(Cc1ccc(-c2nnc(C(F)F)o2)cn1)c1cccc(Cl)c1 [compound 8] | > 20 | > 20 | > 20 |
